Laboratory results from US11065231B2, “Compounds and methods for the targeted degradation of interleukin-1 receptor- associated kinase 4 polypeptides” (Arvinas Operations, Inc., priority 2017, dated 2021).
pIC50: −log10 of the molar value.

What was measured:
[1] = target: T1, IRAK4 (Homo sapiens (Human), UniProt Q9NWZ3); assay: Biochemical Z'-Lyte FRET assay for IRAK4 kinase inhibition; conditions: 2 nM enzyme, 1 mM ATP, 2 μM substrate
Procedure, shortened: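 Z′-Lyte FRET phosphorylation of Ser/Thr 7 peptide (2 µM) by 2 nM recombinant IRAK4 at 1 mM ATP in HEPES pH 7.5 with MgCl2/MnCl2, after 10 min enzyme–compound preincubation; 1 h at room temperature, then 1 h development, 460/530 nm emission. Duplicate 12-point, 3-fold curves from 30 µM; IC50 from percent inhibition against ±100% controls.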

[2] = target: T1, IRAK4; assay: Western blot assay for assessing degradation of IRAK4 in MCF7 cells; format: cell-based
Procedure, shortened: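 MCF7 cells were treated 24 h with serially diluted compound (0.1% DMSO final), then lysed in RIPA. IRAK4 and IRAK1 levels were measured by western blot with β-actin probed alongside. Percent degradation compared compound-treated with DMSO-treated lysates.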

[3] = target: T1, IRAK4; assay: ELISA assay for IRAK4 degradation in MCF7 cells; format: cell-based; conditions: Table 1, 24 hours
Procedure: Enzyme-Linked Immunosorbent Assay (ELISA) Assay for IRAK4 Degradation.
MCF7 cells, purchased from ATCC (Manassas, Va.), were used at a passage range of 2-19. Cells were prepared and treated with compounds for 24 hours, exactly as described above for the Western blots. The ELISA assay was performed using the kit and instructions described by Abcam (cat. #: ab213472, Abcam Biotechnology, Cambridge, Mass.). Table 1 below provides and compares the ELISA IRAK4 degradation data to the western blot IRAK 4 degradation data for Examples 2, 3, 4, and 5. Furthermore, FIG. 5 is a graph illustrating the ELISA IRAK4 degradation data.

[4] = target: T2, IRAK1 (Homo sapiens (Human), UniProt P51617); assay: Western blot assay for degradation of IRAK1 in MCF7 cells; format: cell-based
T2 sequence (P51617 whole entry): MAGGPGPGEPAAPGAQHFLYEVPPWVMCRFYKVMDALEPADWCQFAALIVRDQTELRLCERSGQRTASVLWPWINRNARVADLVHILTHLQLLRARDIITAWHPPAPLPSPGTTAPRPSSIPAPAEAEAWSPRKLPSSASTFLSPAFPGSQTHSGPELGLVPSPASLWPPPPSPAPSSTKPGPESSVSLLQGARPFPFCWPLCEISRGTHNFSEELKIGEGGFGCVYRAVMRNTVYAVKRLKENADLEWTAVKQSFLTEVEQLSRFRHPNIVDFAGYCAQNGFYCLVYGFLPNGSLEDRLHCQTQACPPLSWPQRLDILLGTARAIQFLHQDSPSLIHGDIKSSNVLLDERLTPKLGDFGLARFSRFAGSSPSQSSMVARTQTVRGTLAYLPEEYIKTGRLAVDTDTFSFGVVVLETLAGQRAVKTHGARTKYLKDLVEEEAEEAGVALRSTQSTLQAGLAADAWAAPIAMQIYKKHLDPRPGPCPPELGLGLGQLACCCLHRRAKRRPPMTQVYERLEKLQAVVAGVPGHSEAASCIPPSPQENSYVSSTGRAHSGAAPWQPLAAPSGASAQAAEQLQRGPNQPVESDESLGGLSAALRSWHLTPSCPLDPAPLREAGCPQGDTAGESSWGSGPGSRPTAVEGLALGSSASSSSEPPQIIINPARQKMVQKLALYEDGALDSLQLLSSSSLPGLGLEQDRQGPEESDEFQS

[5] = target: T1, IRAK4; assay: Western blots of IRAK4 protein degradation; format: cell-based; conditions: from western blots
[6] = target: T2, IRAK1; assay: Western blots of IRAK1 protein degradation; format: cell-based
[7] = Table 1, 24 hours, read-out: IRAK4 by western DC50
[8] = Table 5, IRAK4 degradation, 24 hour incubation, read-out: IRAK4 DC50
[9] = Table 5, IRAK4 degradation, 24 hour incubation, read-out: IRAK4 Dmax (%)
[10] = western blot, 24 hour incubation, read-out: DC50 (IRAK4 degradation)
[11] = western blot, 24 hour incubation, read-out: Dmax (IRAK4 degradation)

T1 sequence (Q9NWZ3 whole entry): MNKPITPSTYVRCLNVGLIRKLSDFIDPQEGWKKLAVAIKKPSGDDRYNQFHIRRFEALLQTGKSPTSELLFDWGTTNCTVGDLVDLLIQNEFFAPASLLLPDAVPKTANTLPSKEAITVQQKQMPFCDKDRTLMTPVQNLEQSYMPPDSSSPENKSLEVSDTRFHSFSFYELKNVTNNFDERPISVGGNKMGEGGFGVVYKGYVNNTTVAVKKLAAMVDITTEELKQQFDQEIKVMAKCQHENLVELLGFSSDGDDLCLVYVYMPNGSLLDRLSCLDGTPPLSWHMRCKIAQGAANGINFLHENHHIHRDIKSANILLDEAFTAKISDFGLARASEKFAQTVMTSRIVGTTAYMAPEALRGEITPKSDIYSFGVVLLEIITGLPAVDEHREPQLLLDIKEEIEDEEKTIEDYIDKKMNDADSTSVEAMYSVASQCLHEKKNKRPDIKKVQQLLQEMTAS

pIC50 [1] | IRAK4 by western % degraded ([2]; Table 1, 24 hours) | DC50 [2, 7] | DC50 [2, 8] | Dmax [2, 9] | IRAK4 by ELISA % degraded [3] | DC50 [2, 10] | Dmax [2, 11] | IRAK1 protein degradation [4] | DC50 [5] | Dmax [5] | degradation of IRAK1 [6] | Dmax ([5]; read-out: Dmax) | SMILES
> 7.52 | 76% | 40 nM | 30 to 100 nM | 50 to 70% | 80% | – | – | – | – | – | – | – | O=C1CCC(N2C(=O)c3ccc(OCCOCCOCCOCCOCCN4CCN(Cc5ccc6c(c5)nc(NC(=O)c5cccc(C(F)(F)F)c5)n6[C@H]5CC[C@@H](CO)CC5)CC4)cc3C2=O)C(=O)N1 (stereo partly drawn) [compound 5, N-(5-((4-(14-((2-(2,6-dioxopiperidin-3-yl)-1,3-dioxoisoindolin-5-yl)oxy)-3,6,9,12-tetraoxatetradecyl)piperazin-1-yl)methyl)-1-((1s,4s)-4-(hydroxymethyl)cyclohexyl)-1H-benzo[d]imidazol-2-yl)-3-(trifluoromethyl)benzamide]
> 7.52 | 80% | 23 nM | < 30 nM | > 70% | 86% | 23 nM | 80% | no significant degradation was observed | – | – | – | – | O=C1CCC(N2C(=O)c3ccc(OCCOCCOCCN4CCN(Cc5ccc6c(c5)nc(NC(=O)c5cccc(C(F)(F)F)c5)n6[C@H]5CC[C@@H](CO)CC5)CC4)cc3C2=O)C(=O)N1 (stereo partly drawn) [compound 3, N-(5-((4-(2-(2-(2-((2-(2,6-dioxopiperidin-3-yl)-1,3-dioxoisoindolin-5-yl)oxy)ethoxy)ethoxy)ethyl)piperazin-1-yl)methyl)-1-((1s,4s)-4-(hydroxymethyl)cyclohexyl)-1H-benzo[d]imidazol-2-yl)-3-(trifluoromethyl)benzamide]
– | 71% | – | – | 50 to 70% | 76% | – | 71% | no significant degradation was observed | – | – | – | – | O=C1CCC(N2C(=O)c3ccc(OCCOCCN4CCN(Cc5ccc6c(c5)nc(NC(=O)c5cccc(C(F)(F)F)c5)n6C5CCC(CO)CC5)CC4)cc3C2=O)C(=O)N1 (stereo not drawn) [compound 2, N-(5-((4-(2-(2-((2-(2,6-dioxopiperidin-3-yl)-1,3-dioxoisoindolin-5-yl)oxy)ethoxy)ethyl)piperazin-1-yl)methyl)-1-((1s,4s)-4-(hydroxymethyl)cyclohexyl)-1H-benzo[d]imidazol-2-yl)-3-(trifluoromethyl)benzamide]
– | – | – | – | – | – | – | – | – | 9.7 nM | 71% | no significant degradation was observed | – | O=C1CCC(N2C(=O)c3ccc(OCCOCCN4CCN(Cc5ccc6c(c5)nc(NC(=O)c5cccc(C(F)(F)F)c5)n6C5CCC(CO)CC5)CC4)cc3C2=O)C(=O)N1 (stereo not drawn) [Exemplary Compound 2, N-(5-((4-(2-(2-((2-(2,6-dioxopiperidin-3-yl)-1,3-dioxoisoindolin-5-yl)oxy)ethoxy)ethyl)piperazin-1-yl)methyl)-1-((1s,4s)-4-(hydroxymethyl)cyclohexyl)-1H-benzo[d]imidazol-2-yl)-3-(trifluoromethyl)benzamide]
> 7.52 | 87% | 25 nM | < 30 nM | > 70% | 89% | – | – | – | – | – | – | – | O=C1CCC(N2C(=O)c3ccc(OCCOCCOCCOCCN4CCN(Cc5ccc6c(c5)nc(NC(=O)c5cccc(C(F)(F)F)c5)n6[C@H]5CC[C@@H](CO)CC5)CC4)cc3C2=O)C(=O)N1 (stereo partly drawn) [compound 4, N-(5-((4-(2-(2-(2-(2-((2-(2,6-dioxopiperidin-3-yl)-1,3-dioxoisoindolin-5-yl)oxy)ethoxy)ethoxy)ethoxy)ethyl)piperazin-1-yl)methyl)-1-((1s,4s)-4-(hydroxymethyl)cyclohexyl)-1H-benzo[d]imidazol-2-yl)-3-(trifluoromethyl)benzamide]
> 7.52 | – | – | < 30 nM | 50 to 70% | – | 3.5 nM | 73% | – | 3.5 nM | – | – | 73% | COc1cc2nn(C3CCN(CCOCCOc4ccc5c(c4)CN(C4CCC(=O)NC4=O)C5=O)CC3)cc2cc1NC(=O)c1cccc(C(F)(F)F)n1 (stereo not drawn) [compound 60, N-(2-(1-(2-(2-((2-(2,6-dioxopiperidin-3-yl)-1-oxoisoindolin-5-yl)oxy)ethoxy)ethyl)piperidin-4-yl)-6-methoxy-2H-indazol-5-yl)-6-(trifluoromethyl)picolinamide]
6.00 to 6.52 | – | – | ≥ 1000 nM | > 70% | – | – | – | – | – | – | – | – | Cc1ncsc1-c1ccc(CNC(=O)[C@@H]2C[C@@H](O)CN2C(=O)[C@@H](NC(=O)COCCN2CCN(Cc3ccc4c(c3)nc(NC(=O)c3cccc(C(F)(F)F)c3)n4C3CCC(CO)CC3)CC2)C(C)(C)C)cc1 (mixture of isomers) [compound 11, (2S,4R)-4-hydroxy-1-((S)-2-(2-(2-(4-((1-((1SR,4SR)-4-(hydroxymethyl)cyclohexyl)-2-(3-(trifluoromethyl)benzamido)-1H-benzo[d]imidazol-5-yl)methyl)piperazin-1-yl)ethoxy)acetamido)-3,3-dimethylbutanoyl)-N-(4-(4-methylthiazol-5-yl)benzyl)pyrrolidine-2-carboxamide]
